From patent US9309263B2, “Fused multi-cyclic sulfone compounds as inhibitors of beta-secretase and methods of use thereof” (AMGEN INC., priority 2013, dated 2016)
pIC50: −log10 of the molar value.

Tests used:
[1] = tested on: Aβ 40 in conditioned medium of cells stably expressing Amyloid Precursor Protein (APP); assay: In vitro BACE cell-based assay (Aβ 40 sandwich ELISA); settings: Homo sapiens, HEK293; average IC50, HEK cell assay, Aβ 40 readout
Procedure, shortened: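 Aβ40 in conditioned medium measured by pAb40/biotin-6E10 sandwich ELISA with time-resolved europium fluorescence, after 24 h exposure of stable APP cells to compounds (10-point series starting 100 μM or 10 μM; 0.1% DMSO). IC50 fitted from percent of control against concentration.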

[2] = target: Cathepsin D (Cat D) (Homo sapiens, UniProt P07339); assay: In vitro enzymatic Cathepsin D (Cat D) FRET assay; type: biochemical; settings: Cathepsin D FRET assay; read-out: CatD IC50
Procedure, shortened: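 FRET peptide substrate (20 nM) is cleaved by CHO-derived recombinant enzyme (9 nM) for 1 h after a 1 h inhibitor pre-incubation, at pH 3.5 in citrate buffer with 5 mM CHAPS and 10% DMSO. Tris addition ends the reaction; fluorescence measured at 500 nm excitation, 580 nm emission.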

[3] = target: Beta Secretase enzyme (BACE) (Homo sapiens, UniProt P56817); assay: In vitro enzymatic BACE FRET assay; type: biochemical; settings: average IC50, in vitro enzymatic BACE FRET assay; read-out: BACE1 FRET assay IC50
Procedure, shortened: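 Cleavage of a quenched 50 nM FRET peptide substrate, read as fluorescence (excitation 488 nm, […]) after 1 h and Tris quench to neutrality. Buffer: 0.05 M acetate pH 4.2 with 10% DMSO and 100 uM genapol. Inhibitor dilutions were pre-incubated 1 h with 0.2 nM enzyme.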

Sequence of Beta Secretase enzyme (BACE) (P56817 46-501): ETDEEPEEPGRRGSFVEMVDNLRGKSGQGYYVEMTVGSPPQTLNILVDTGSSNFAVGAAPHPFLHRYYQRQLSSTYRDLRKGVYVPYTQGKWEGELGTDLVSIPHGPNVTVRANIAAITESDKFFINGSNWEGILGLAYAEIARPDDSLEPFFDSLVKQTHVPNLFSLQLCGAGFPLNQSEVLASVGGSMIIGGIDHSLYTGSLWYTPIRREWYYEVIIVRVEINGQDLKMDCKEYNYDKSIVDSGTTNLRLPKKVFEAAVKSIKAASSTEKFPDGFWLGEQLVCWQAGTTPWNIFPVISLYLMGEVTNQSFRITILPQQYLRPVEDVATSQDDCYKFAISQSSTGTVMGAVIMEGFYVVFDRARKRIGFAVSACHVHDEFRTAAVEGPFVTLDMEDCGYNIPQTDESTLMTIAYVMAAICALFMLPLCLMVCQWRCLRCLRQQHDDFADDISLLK
Sequence of Cathepsin D (Cat D) (P07339 65-412, species assumed): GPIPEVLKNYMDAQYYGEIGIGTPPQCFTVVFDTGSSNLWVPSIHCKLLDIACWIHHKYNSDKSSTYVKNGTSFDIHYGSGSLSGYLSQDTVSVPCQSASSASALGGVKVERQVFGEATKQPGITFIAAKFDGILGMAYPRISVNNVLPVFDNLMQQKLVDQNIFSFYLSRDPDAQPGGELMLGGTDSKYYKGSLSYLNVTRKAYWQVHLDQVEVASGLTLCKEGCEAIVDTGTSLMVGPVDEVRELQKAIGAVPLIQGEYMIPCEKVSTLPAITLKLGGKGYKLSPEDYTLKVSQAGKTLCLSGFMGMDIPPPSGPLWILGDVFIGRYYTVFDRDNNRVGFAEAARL

Row | SMILES | pIC50 [1] | pIC50 [2] | pIC50 [3]
1 | Cc1cc(C#N)cnc1C(=O)Nc1ccc2c(c1)[C@@]1(C)N=C(N)C(C)(C)S(=O)(=O)[C@]1(F)CCO2 [Example 111, N-((4aR,11bR)-2-amino-4a-fluoro-3,3,11b-trimethyl-4,4-dioxido-4a,5,6,11b-tetrahydro-3H-[1]benzoxepino[4,5-b][1,4]thiazin-10-yl)-5-cyano-3-methyl-2-pyridinecarboxamide] | 7.72 | 3.48 | 8.30
2 | CC1(C)C[C@@H]2[C@](C)(N=C(N)C(C)(C)S2(=O)=O)c2cc(Nc3nccc4cc(C#N)cnc34)ccc2O1 [Example 112, 8-(((4aR,11bR)-2-amino-3,3,6,6,11b-pentamethyl-4,4-dioxido-4a,5,6,11b-tetrahydro-3H-[1]benzoxepino[4,5-b][1,4]thiazin-10-yl)amino)-1,7-naphthyridine-3-carbonitrile] | 8.70 | 3.50 | 8.52
3 | Cc1cc(C(F)(F)F)cnc1C(=O)Nc1ccc2c(c1)[C@@]1(C)N=C(N)C(C)(C)S(=O)(=O)[C@@H]1CC(C)(C)O2 [Example 113, N-((4aR,11bR)-2-amino-3,3,6,6,11b-pentamethyl-4,4-dioxido-4a,5,6,11b-tetrahydro-3H-[1]benzoxepino[4,5-b][1,4]thiazin-10-yl)-3-methyl-5-(trifluoromethyl)-2-pyridinecarboxamide] | 8.70 | 2.92 | 8.22
4 | Cc1cc(Cl)cnc1C(=O)Nc1ccc2c(c1)[C@@]1(C)N=C(N)C(C)(C)S(=O)(=O)[C@@H]1CCS2 [Example 114, N-((4aR,11bR)-2-amino-3,3,11b-trimethyl-4,4-dioxido-4a,5,6,11b-tetrahydro-3H-[1]benzothiepino[4,5-b][1,4]thiazin-10-yl)-5-chloro-3-methyl-2-pyridinecarboxamide] | 7.92 | 3.53 | 9.00
5 | Cc1cc(Cl)cnc1C(=O)Nc1ccc2c(c1)[C@@]1(C)N=C(N)C(C)(C)S(=O)(=O)[C@H]1CCS2 [Example 115, N-((4aS,11bR)-2-amino-3,3,11b-trimethyl-4,4-dioxido-4a,5,6,11b-tetrahydro-3H-[1]benzothiepino[4,5-b][1,4]thiazin-10-yl)-5-chloro-3-methyl-2-pyridinecarboxamide] | 7.92 | 3.56 | 8.22
6 | Cc1cc(C(F)(F)F)cnc1C(=O)Nc1ccc2c(c1)[C@@]1(CF)N=C(N)C(C)(C)S(=O)(=O)[C@H]1CCO2 [Example 116, N-((4aS,11bS)-2-amino-11b-(fluoromethyl)-3,3-dimethyl-4,4-dioxido-4a,5,6,11b-tetrahydro-3H-[1]benzoxepino[4,5-b][1,4]thiazin-10-yl)-3-methyl-5-(trifluoromethyl)-2-pyridinecarboxamide] | 7.85 | < 3.40 | 7.96
7 | COc1cnc(C(=O)Nc2ccc3c(c2)[C@@]2(C)N=C(N)C(C)(C)S(=O)(=O)[C@@H]2CCS3)cn1 [Example 117, N-((4aR,11bR)-2-amino-3,3,11b-trimethyl-4,4-dioxido-4a,5,6,11b-tetrahydro-3H-[1]benzothiepino[4,5-b][1,4]thiazin-10-yl)-5-methoxy-2-pyrazinecarboxamide] | 8.52 | 3.77 | 7.85
8 | Cc1cc(OC(F)F)cnc1C(=O)Nc1ccc2c(c1)[C@@]1(C)N=C(N)C(C)(C)S(=O)(=O)[C@@H]1CCS2 [Example 118] | 8.70 | 3.68 | 8.70
9 | Cc1cc(C(F)(F)F)cnc1C(=O)Nc1ccc2c(c1)[C@@]1(CF)N=C(N)C(C)(C)S(=O)(=O)[C@@H]1CCO2 [Example 119, N-((4aR,11bS)-2-amino-11b-(fluoromethyl)-3,3-dimethyl-4,4-dioxido-4a,5,6,11b-tetrahydro-3H-[1]benzoxepino[4,5-b][1,4]thiazin-10-yl)-3-methyl-5-(trifluoromethyl)-2-pyridinecarboxamide] | 7.72 | 2.47 | 7.62
10 | CC1(C)C(N)=N[C@]2(CF)c3cc(NC(=O)c4cnc(C(F)(F)F)cn4)ccc3OCC[C@@H]2S1(=O)=O [Example 120, N-((4aS,11bS)-2-amino-11b-(fluoromethyl)-3,3-dimethyl-4,4-dioxido-4a,5,6,11b-tetrahydro-3H-[1]benzoxepino[4,5-b][1,4]thiazin-10-yl)-5-(trifluoromethyl)-2-pyrazinecarboxamide] | 6.83 | 3.12 | 7.09
11 | CC1(C)C(N)=N[C@]2(CF)c3cc(NC(=O)c4cnc(C(F)(F)F)cn4)ccc3OCC[C@H]2S1(=O)=O [Example 121, N-((4aR,11bS)-2-amino-11b-(fluoromethyl)-3,3-dimethyl-4,4-dioxido-4a,5,6,11b-tetrahydro-3H-[1]benzoxepino[4,5-b][1,4]thiazin-10-yl)-5-(trifluoromethyl)-2-pyrazinecarboxamide] | 6.68 | 3.00 | 6.74
12 | CC1(C)C(N)=N[C@]2(CF)c3cc(NC(=O)c4ccc(OC(F)F)cn4)ccc3OCC[C@@H]2S1(=O)=O [Example 122, N-((4aS,11bS)-2-amino-11b-(fluoromethyl)-3,3-dimethyl-4,4-dioxido-4a,5,6,11b-tetrahydro-3H-[1]benzoxepino[4,5-b][1,4]thiazin-10-yl)-5-(difluoromethoxy)-2-pyridinecarboxamide] | 7.89 | 2.99 | 7.96

The next lines start with the values.

Row | pIC50 [1] | pIC50 [2] | pIC50 [3] | SMILES
13 | 7.48 | 2.39 | 7.72 | CC1(C)C(N)=N[C@]2(CF)c3cc(NC(=O)c4ccc(OC(F)F)cn4)ccc3OCC[C@H]2S1(=O)=O [Example 123, N-((4aR,11bS)-2-amino-11b-(fluoromethyl)-3,3-dimethyl-4,4-dioxido-4a,5,6,11b-tetrahydro-3H-[1]benzoxepino[4,5-b][1,4]thiazin-10-yl)-5-(difluoromethoxy)-2-pyridinecarboxamide]
14 | 8.10 | < 5.78 | 8.22 | Cc1cc(Cl)cnc1C(=O)Nc1ccc2c(c1)[C@@]1(C)N=C(N)C(C)(C)S(=O)(=O)[C@@H]1CCS2(=O)=O [Example 124, N-((4aR,11bR)-2-amino-3,3,11b-trimethyl-4,4,7,7-tetraoxido-4a,5,6,11b-tetrahydro-3H-benzo[6,7]thiepino[4,5-b][1,4]thiazin-10-yl)-5-chloro-3-methylpicolinamide]
15 | 7.47 | < 5.78 | 7.77 | CC1(C)C(N)=N[C@]2(C)c3cc(NC(=O)c4ccc(OCC#N)cn4)ccc3OCC[C@H]2S1(=O)=O [Example 126, N-((4aR,11bR)-2-amino-3,3,11b-trimethyl-4,4-dioxido-4a,5,6,11b-tetrahydro-3H-[1]benzoxepino[4,5-b][1,4]thiazin-10-yl)-5-(cyanomethoxy)-2-pyridinecarboxamide]
16 | 8.52 | 3.23 | 8.10 | CC1(C)C[C@@H]2[C@](C)(N=C(N)C(C)(C)S2(=O)=O)c2cc(NC(=O)c3ncc(Cl)cc3Cl)ccc2O1 [Example 128, N-((4aR,11bR)-2-amino-3,3,6,6,11b-pentamethyl-4,4-dioxido-4a,5,6,11b-tetrahydro-3H-[1]benzoxepino[4,5-b][1,4]thiazin-10-yl)-3,5-dichloro-2-pyridinecarboxamide]
17 | 9.10 | 4.35 | 8.52 | C[C@H]1C[C@@H]2[C@](C)(N=C(N)C(C)(C)S2(=O)=O)c2cc(NC(=O)c3ncc(Cl)cc3CO)ccc2O1 [Example 130, N-((4aR,6S,11bR)-2-amino-3,3,6,11b-tetramethyl-4,4-dioxido-4a,5,6,11b-tetrahydro-3H-benzo[6,7]oxepino[4,5-b][1,4]thiazin-10-yl)-5-chloro-3-(hydroxymethyl)picolinamide]
18 | 8.30 | 3.35 | 8.30 | C[C@H]1C[C@@H]2[C@](C)(N=C(N)C(C)(C)S2(=O)=O)c2cc(Nc3nccc4cc(C(F)(F)F)cnc34)ccc2O1 [Example 131, (4aR,6S,11bR)-2-amino-3,3,6,11b-tetramethyl-10-((3-(trifluoromethyl)-1,7-naphthyridin-8-yl)amino)-4a,5,6,11b-tetrahydro-3H-benzo[6,7]oxepino[4,5-b][1,4]thiazine 4,4-dioxide]
19 | 9.10 | 3.45 | 8.70 | Cc1cc(C(F)(F)F)cnc1C(=O)Nc1ccc2c(c1)[C@@]1(C)N=C(N)C(C)(C)S(=O)(=O)[C@@H]1CCS2 [Example 132, N-((4aR,11bR)-2-amino-3,3,11b-trimethyl-4,4-dioxido-4a,5,6,11b-tetrahydro-3H-[1]benzothiepino[4,5-b][1,4]thiazin-10-yl)-3-methyl-5-(trifluoromethyl)-2-pyridinecarboxamide]
20 | 8.52 | < 4.35 | 8.52 | Cc1cnc(COc2cnc3c(Nc4ccc5c(c4)[C@@]4(C)N=C(N)C(C)(C)S(=O)(=O)[C@@H]4C[C@H](C)O5)nccc3n2)o1 [Example 134, (4aR,6S,11bR)-3,3,6,11b-tetramethyl-N^~10^~-(2-((5-methyl-1,3-oxazol-2-yl)methoxy)pyrido[3,4-b]pyrazin-5-yl)-4a,5,6,11b-tetrahydro-3H-[1]benzoxepino[4,5-b][1,4]thiazine-2,10-diamine 4,4-dioxide]
